The data set concerns the target HSD17B13. Conditions: ASO, HepaRG.

After the bases stand the sugars from the 5' end (letter, count) and the backbone: PS all phosphorothioate, else s phosphorothioate and o phosphodiester by linkage. Methylation of C is not given here. e = 2'-O-(2-methoxyethyl) (MOE); k = constrained ethyl (cEt); d = 2'-deoxy (DNA); m = 2'-O-methyl

Turning to AACTACAAGAGGTTAT (sugars k3 d10 k3, PS), the target mRNA inhibition (1 µM) amounted to 57%.

In turn, ACAGAGTTATTGTAGG (sugars k3 d10 k3, PS) came in with a target mRNA inhibition (1 µM) of 58%.

With AGCAAGCCAACAGAGA (sugars k3 d10 k3, PS), the target mRNA inhibition (1 µM) turned out to be 40%.

Turning to AAATTGGTTTCGAATC (sugars k3 d10 k3, PS), the target mRNA inhibition (1 µM) was determined as 32%. With “TCTTATGTAATAGCCA (sugars k3 d9 k3 e1, PS)”, the target mRNA inhibition by setting is: (0.02 µM) 15%; (0.078 µM) 18%; (0.313 µM) 25%; (1 µM) 76%; (1.25 µM) 65%; (5 µM) 84%. TAGCTTAAACTCCAAT (sugars k3 d10 k3, PS): the target mRNA inhibition (1 µM) is 60%. Same read-out and setting: the same measure for ATTTTCAGATCCCGTT (sugars k3 d10 k3, PS): 67%.

Regarding AGGTAGCTTTTGTCCA (sugars k3 d10 k3, PS), the target mRNA inhibition (1 µM) is 56%.

ACTCGGGAAGTTTAGA (sugars k3 d10 k3, PS): the target mRNA inhibition (1 µM) amounted to 26%. Sequence AAATTCATAAGTAGTC (sugars k3 d10 k3, PS) showed a target mRNA inhibition (1 µM) of 39%. Regarding GTAGGCTAAACCCTGG (sugars k3 d10 k3, PS), the target mRNA inhibition (1 µM) turned out to be 62%. GTGGTAACGGTGATCA (sugars k3 d10 k3, PS) came in with a target mRNA inhibition (1 µM) of 49%. The sequence “ATCTCTGGGACCAAGG (sugars kkdddddddddkekek, PS)” returned a target mRNA inhibition (1 µM) of 65%.

For the sequence TGATTTTGACCTTACC (sugars k3 d10 k3, PS), under “1 µM”, the target mRNA inhibition amounted to 11%.

For AAGTTACCAGAGCATT (sugars k3 d10 k3, PS), the target mRNA inhibition came to 0% (0.02 µM); 5% (0.078 µM); 45% (0.313 µM); 70% (1 µM); 80% (1.25 µM); 90% (5 µM). Where the note is “1 µM”, GTAATAAAGTCCAGAA (sugars k3 d10 k3, PS) returned a target mRNA inhibition of 66%. Consider CTACATGACCTGGGTC (sugars k3 d10 k3, PS), for which the target mRNA inhibition (1 µM) was found to be 59%. Sequence GAGTAGATGATGGTGA (sugars k3 d10 k3, PS) came in with a target mRNA inhibition (1 µM) of 28%. AGTTTCCTCCACACCG (sugars k3 d10 k3, PS) registered a target mRNA inhibition (1 µM) of 28%. Turning to AGGCTAGGGAAATCTT (sugars k3 d10 k3, PS), under “1 µM”, the target mRNA inhibition came to 62%. Still for that read-out and setting: the value for TACATATCAATGCCTT (sugars k3 d10 k3, PS) was 38%. Turning to GTTAATGTAGTGTTTA (sugars k3 d10 k3, PS), the target mRNA inhibition came out at 7% (0.02 µM); 25% (0.078 µM); 45% (0.313 µM); 77% (1 µM); 78% (1.25 µM); 92% (5 µM). Under “1 µM”, GTGAAATCTTGTGTAA (sugars k3 d10 k3, PS) had a target mRNA inhibition of 44%. The sequence TTAGAGTGAATCATTC (sugars k3 d10 k3, PS) displayed a target mRNA inhibition (1 µM) of 69%.

For the setting “1 µM”, ACCTCAAATGTCTTGG (sugars k3 d10 k3, PS) returned a target mRNA inhibition of 17%. Consider CTTAAGAGAAGGTGCA (sugars k3 d10 k3, PS), for which, for the setting “1 µM”, the target mRNA inhibition was determined as 43%.

Sequence AATATGTCCAGGTTGA (sugars k3 d10 k3, PS) showed a target mRNA inhibition (1 µM) of 64%. Regarding “AGATAAAGCTGCCTGC (sugars k3 d1 m1 d8 k3, PS)”, the target mRNA inhibition (1 µM) was determined as 35%. Under “1 µM”, ACATACGCATGCGCAG (sugars k3 d10 k3, PS) registered a target mRNA inhibition of 20%. “TGTAGTGGGAGTCGGA (sugars k3 d1 m1 d8 k3, PS)” displayed a target mRNA inhibition (1 µM) of 50%.

GGATATACTGTCCCAG (sugars k3 d10 k3, PS): the target mRNA inhibition (1 µM) is 9%.

As to ATAACCATAGGACATG (sugars k3 d10 k3, PS), the target mRNA inhibition reads like this: (0.02 µM) 37%; (0.078 µM) 38%; (0.313 µM) 58%; (1 µM) 70%; (1.25 µM) 84%; (5 µM) 92%. Regarding ATGATTGAATTCACTA (sugars k3 d10 k3, PS), the target mRNA inhibition (1 µM) amounted to 33%. Where the note is “1 µM”, “AGTTAGTATAGTTATC (sugars k3 d9 k3 e1, PS)” had a target mRNA inhibition of 47%.

ACAAGAGGATAGTCCA (sugars k3 d10 k3, PS) yielded a target mRNA inhibition (1 µM) of 64%. In the case of ACACTAATATTGAGGC (sugars k3 d10 k3, PS), the target mRNA inhibition runs as follows: (0.02 µM) 28%; (0.078 µM) 32%; (0.313 µM) 37%; (1 µM) 68%; (1.25 µM) 58%; (5 µM) 85%. As to “GTTTUTAAGAGGCATG (sugars k3 d1 m1 d8 k3, PS)”, the target mRNA inhibition (1 µM) is 38%. On the same count and under the same terms, the same measure for CTTCAGAGTTATACAG (sugars k3 d10 k3, PS): 35%; for “TAGTGGACTTCATTAG (sugars kkdddddddddkekek, PS)”: 41%; for “TCTTAAGATACCCAGG (sugars kkdddddddddkekek, PS)”: 35%. Regarding TAATTAATCTTGTTCG (sugars k3 d10 k3, PS), the target mRNA inhibition (1 µM) came out at 63%. In turn, AGTTAGAATAGTCTTC (sugars k3 d10 k3, PS) displayed a target mRNA inhibition (1 µM) of 67%. Regarding “CCTGUGTTAGCTTTAA (sugars k3 d1 m1 d8 k3, PS)”, the target mRNA inhibition (1 µM) amounted to 28%. As for GCTTACGACAGGTCAT (sugars k3 d10 k3, PS), under “1 µM”, the target mRNA inhibition came to 73%.

In turn, “CCGTTTTGGGCTAATG (sugars kkdddddddddkekek, PS)” showed a target mRNA inhibition (0.02 µM) of 0%; a target mRNA inhibition (0.078 µM) of 4%; a target mRNA inhibition (0.313 µM) of 36%; a target mRNA inhibition (1 µM) of 72%; a target mRNA inhibition (1.25 µM) of 52%; a target mRNA inhibition (5 µM) of 78%. With AACTAGTGGTAATGGT (sugars k3 d10 k3, PS), the target mRNA inhibition (1 µM) was 32%. In the case of “GGCTACAGATTGGAAT (sugars k3 d1 m1 d8 k3, PS)”, the target mRNA inhibition (1 µM) is 40%. For the sequence AGTTAGTATAGTTATC (sugars k3 d10 k3, PS), the target mRNA inhibition reads like this: (0.02 µM) 35%; (0.078 µM) 35%; (0.313 µM) 60%; (1 µM) 74%; (1.25 µM) 68%; (5 µM) 84%. Where the note is “1 µM”, ATCTAGAATTAAGGGC (sugars k3 d10 k3, PS) came in with a target mRNA inhibition of 41%. GATGAGTAGGCAACTG (sugars k3 d10 k3, PS) showed a target mRNA inhibition (1 µM) of 42%. Regarding AATACAGGATAGAGCA (sugars k3 d10 k3, PS), under “1 µM”, the target mRNA inhibition turned out to be 0%.

Where the note is “1 µM”, AGCGGCAAATTTGCTG (sugars k3 d10 k3, PS) had a target mRNA inhibition of 5%. AGTGCTAAGTAGTAAT (sugars k3 d10 k3, PS) returned a target mRNA inhibition (1 µM) of 71%. In turn, TTTAACTACCCTCACA (sugars k3 d10 k3, PS) yielded a target mRNA inhibition (1 µM) of 0%.

Consider “ACCAAACTTCCAGCAG (sugars kkdddddddddkekek, PS)”, for which the target mRNA inhibition (1 µM) turned out to be 32%. Same read-out and setting: the same measure for CAAGAGACACCACCAG (sugars k3 d10 k3, PS): 50%.

In turn, “GGGAGGTAGCTTTTGT (sugars kkdddddddddkekek, PS)” registered a target mRNA inhibition (1 µM) of 66%. TGCTAGTAATTGCATC (sugars k3 d10 k3, PS) returned a target mRNA inhibition (1 µM) of 17%. On the same count and under the same terms, the value for GAATCATTAAGCTTAG (sugars k3 d10 k3, PS) was 63%; that for CGATGTGGCCATGATT (sugars k3 d10 k3, PS) was 44%; that for “GCTGCTAGTGCCAAAC (sugars kkdddddddddkekek, PS)” was 62%. Same read-out and setting: the value for CATAAGAGCCAAACTG (sugars k3 d10 k3, PS) was 27%; that for ACTTCATAGTGGACTT (sugars k3 d10 k3, PS) was 61%. With CATATCTTACTCTGTG (sugars k3 d10 k3, PS), the target mRNA inhibition (1 µM) amounted to 47%. For the setting “1 µM”, AAGGAGTAGTGGAGCC (sugars k3 d10 k3, PS) returned a target mRNA inhibition of 38%. “ATGCTACTTGAACAGT (sugars k3 d9 k3 e1, PS)”: the target mRNA inhibition (1 µM) came out at 50%.

“CAGAUTATTATGTGAT (sugars k3 d1 m1 d8 k3, PS)” came in with a target mRNA inhibition (1 µM) of 32%. Take “CCATCTATCAGACTTC (sugars k3 d1 m1 d8 k3, PS)”: the target mRNA inhibition (1 µM) worked out at 56%. For the sequence TTCAGTCCTTGTGTAG (sugars k3 d10 k3, PS), the target mRNA inhibition (1 µM) was found to be 45%. TATGTAATAGGCAGTA (sugars k3 d10 k3, PS) showed a target mRNA inhibition (1 µM) of 62%. The sequence “ACACTAATATTGAGGC (sugars k3 d9 k3 e1, PS)” gave a target mRNA inhibition (1 µM) of 68%. Sequence “CCTAUATACATCCAAG (sugars k3 d1 m1 d8 k3, PS)” showed a target mRNA inhibition (1 µM) of 39%. With TAAGTAGTCTGCCTGC (sugars k3 d10 k3, PS), under “1 µM”, the target mRNA inhibition was 19%. Take “TTCCATCTATCAGACT (sugars k3 d1 m1 d8 k3, PS)”: the target mRNA inhibition (1 µM) was 38%. TCCAAGTAATTACTTC (sugars k3 d10 k3, PS): the target mRNA inhibition was 0% (0.02 µM); 3% (0.078 µM); 23% (0.313 µM); 72% (1 µM); 43% (1.25 µM); 67% (5 µM).

Turning to “TTAGTTAGAATAGTCT (sugars k3 d9 k3 e1, PS)”, where the note is “1 µM”, the target mRNA inhibition came to 67%. “AATAGCCAGTACAGTT (sugars k3 d1 m1 d8 k3, PS)” returned a target mRNA inhibition (1 µM) of 66%. Sequence AAAGTTAGTTGGGCGA (sugars k3 d10 k3, PS) had a target mRNA inhibition (1 µM) of 26%. Still for that read-out and setting: the value for AAATTTGTGAACCTGC (sugars k3 d10 k3, PS) was 26%.

For the origin of these results see the OligoGym collection.
